Measurements taken from US20210077592A1, “COMPOSITION TO PREVENT INTESTINAL DAMAGE” (FUSION FARM S.R.L. SEMPLIFICATA, priority 2017, published 2021).

Tests used:
Type in all cases: cell-based
Caco-2 cells [1] = assay: Lucifer Yellow (LY) assay of paracellular permeability in Caco-2 intestinal damage model
Experimental: A protocol was developed based on Caco-2 cell inserts model (CACOREADY™ cells, lot no. 24 676 101716 and no. 24 680 111416, Readycell manufacturer) consisting in two steps:
1. Induction of epithelial damage (40 h incubation in glutamine free medium followed by stress induced by 60 mM ethanol for 4 h)
2. Evaluation of the single products first, and then applied in combination during stress induced by the absence of glutamine (60 h), and with subsequent stress induced by ethanol, to evaluate the efficacy in preventing damage. […]
Cells without damage induction (NC=without damage) and with damage induction (PC) were evaluated with the Lucifer Yellow (LY) assay, which verifies the integrity of the cellular junctions in presence of the test substance. […]
According to the experimental protocol, to evaluate the efficacy of the composition of the invention in damage prevention, sodium butyrate (2 mM concentration) and lactoferrin (400 μg/ml concentration), either alone or in combination, were applied on Caco-2 cells during stress induced by absence of glutamine, increasing the time of said deprivation, with respect to the conditions tested during the development of the model, and therefore of stress induction, to 60 hours, to make more evident differences in cells behavior in the different treatment situations. […] The parameters were evaluated at the end. […]

[2] = system: Occludin and Zonula Occludens in Caco-2 cells; assay: Fluorescence immunolabeling of Occludin and Zonula Occludens in Caco-2 cells after damage induction; conditions: pretreatment 60 h without glutamine, then 60 mM ethanol 4 h
Experimental: As it can be seen by FIG. 1, the damage induced an increase in permeability. The same cells without damage induction (NC) and with damage induction (PC), as indicated above, were further evaluated by fluorescence immunolabeling of Occludina and Zonula Occludens (proteins present in the intestinal membrane intracellular junctions).
(§1) According to the experimental protocol, to evaluate the efficacy of the composition of the invention in damage prevention, sodium butyrate (2 mM concentration) and lactoferrin (400 μg/ml concentration), either alone or in combination, were applied on Caco-2 cells during stress induced by absence of glutamine, increasing the time of said deprivation, with respect to the conditions tested during the development of the model, and therefore of stress induction, to 60 hours, to make more evident differences in cells behavior in the different treatment situations. At the end of 60 hours, the products were removed, and damage was induced for 4 h with 60 mM ethanol. The parameters were evaluated at the end.
To confirm the observed behavior, an evaluation using fluorescence immunolabeling of Occludin and Zonula Occludens was also performed.

Caco-2 cells [3] = assay: Electron Microscopy (SEM) of microvilli of Caco-2 cells after damage induction; conditions: pretreatment 60 h without glutamine, then 60 mM ethanol 4 h, 750x-10000x
Experimental: The same cells without damage induction (NC) and with damage induction (PC), as indicated above, were finally evaluated by Electron Microscopy (SEM) at different magnifications.
as §1
The same cells were finally evaluated also by Electron Microscopy SEM, at various magnifications.

**Q.** Which results are given for `CCCC(=O)[O-].[Na+]` [sodium butyrate, reference compound]?
**A.** increase in LY flux (permeability) (Caco-2 cells [1]; 2 mM sodium butyrate alone during 60 h glutamine deprivation, then 60 mM ethanol 4 h): over 51%; permeability (LY), result in words (Caco-2 cells [1]; treatment at the same time as damage induction): significant increase in permeability; fluorescence intensity / expression of tight junction proteins (Occludin, Zonula Occludens), result in words [2]: lower expression of the tight junctions' proteins; effect on microvilli / villous atrophy by SEM, result in words (Caco-2 cells [3]): did not have any effect in combating the partial villous atrophy
